The source of these data is US20250223306A1, “TEAD INHIBITORS AND METHODS OF USE” (Sporos BioDiscovery, Inc., priority 2022, published 2025).

What all share (assay): TEAD thermal shift assay (TSA)
Type in all cases: binding

In one test the target is TEAD3 (Homo sapiens, UniProt Q99594). The text has this: (§1) Thermal shift assay (TSA) is a biophysical method to evaluate stability of proteins with change in temperature. The assay measures thermal denaturation temperature in varying conditions such as different drug concentration. For this example, fluorogenic dye was used that bind to unfolded proteins. SYPRO Orange binds non-specifically to hydrophobic surfaces, and water strongly quenches its fluorescence. When the protein unfolds, the exposed hydrophobic surfaces bind the dye, resulting in an increase in fluorescence by excluding water. Detergent micelles also bind the dye and increase background noise dramatically. Binding of small molecules to proteins leads to a stabilization against to thermal denaturation with the degree of thermal stabilization proportional to the strength of binding.
Sequence of TEAD3 (Q99594 whole entry): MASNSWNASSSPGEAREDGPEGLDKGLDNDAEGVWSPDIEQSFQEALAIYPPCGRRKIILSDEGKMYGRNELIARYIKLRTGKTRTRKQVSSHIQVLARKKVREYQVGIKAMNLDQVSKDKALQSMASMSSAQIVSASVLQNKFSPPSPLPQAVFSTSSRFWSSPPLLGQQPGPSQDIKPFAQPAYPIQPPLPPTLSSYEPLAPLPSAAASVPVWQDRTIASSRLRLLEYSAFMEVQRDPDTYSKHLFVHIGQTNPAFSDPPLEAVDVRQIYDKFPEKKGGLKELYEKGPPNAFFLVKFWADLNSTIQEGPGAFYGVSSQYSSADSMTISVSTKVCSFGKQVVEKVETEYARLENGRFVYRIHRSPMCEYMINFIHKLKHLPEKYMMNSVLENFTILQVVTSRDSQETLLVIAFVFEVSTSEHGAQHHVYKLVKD
(§2) The study described in this example investigated the change in melting temperature (ΔTm) of TEAD isoforms 1˜4 when treated with TEAD inhibitors. Compound 1-1-a known strong TEAD1 and weak TEAD2 inhibitor; as well as Compound 1-4-a pan-TEAD inhibitor were used as controls.
(§3) Tris-HCL was dissolved in 5 mL of Cell culture grade water and allowed to dissolve completely. The pH was adjusted to 8 using NaOH. Additional assay buffer components were added in the order listed above. The buffer was mixed slowly.
(§4) Assay buffer was prepared according to the procedures outlined above and dispensed into test wells. Spyro orange was added to a concentration of 5× in the assay buffer, followed by test compound stock solution which was added to a concentration of 10 μM or 30 μM in the assay buffer.
(§5) The melt cycle was performed in Bio-RAD PCR instrument from 20-95° C. with ramp rate of 1° C./min.

The target of the next test is TEAD2 (Homo sapiens, UniProt Q15562).
Sequence of TEAD2 (Q15562 whole entry): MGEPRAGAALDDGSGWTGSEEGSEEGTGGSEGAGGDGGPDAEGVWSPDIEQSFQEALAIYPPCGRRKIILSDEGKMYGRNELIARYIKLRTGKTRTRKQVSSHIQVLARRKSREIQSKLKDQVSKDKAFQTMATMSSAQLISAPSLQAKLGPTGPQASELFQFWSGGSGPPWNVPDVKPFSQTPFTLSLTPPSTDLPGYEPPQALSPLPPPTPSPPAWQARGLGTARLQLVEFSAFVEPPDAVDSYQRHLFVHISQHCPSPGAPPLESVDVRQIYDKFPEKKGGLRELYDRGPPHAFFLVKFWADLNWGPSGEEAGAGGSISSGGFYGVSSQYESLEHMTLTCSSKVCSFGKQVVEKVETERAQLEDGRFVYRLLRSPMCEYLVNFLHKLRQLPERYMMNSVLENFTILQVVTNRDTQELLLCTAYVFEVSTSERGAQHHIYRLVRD
Description: as §1, §2, §3, §4, §5

Another test has as its target TEAD1 (Homo sapiens, UniProt P28347).
Description: as §1, §2, §3, §4, §5

The next test deals with TEAD4 (Homo sapiens, UniProt Q15561).
Sequence of TEAD4 (Q15561 whole entry): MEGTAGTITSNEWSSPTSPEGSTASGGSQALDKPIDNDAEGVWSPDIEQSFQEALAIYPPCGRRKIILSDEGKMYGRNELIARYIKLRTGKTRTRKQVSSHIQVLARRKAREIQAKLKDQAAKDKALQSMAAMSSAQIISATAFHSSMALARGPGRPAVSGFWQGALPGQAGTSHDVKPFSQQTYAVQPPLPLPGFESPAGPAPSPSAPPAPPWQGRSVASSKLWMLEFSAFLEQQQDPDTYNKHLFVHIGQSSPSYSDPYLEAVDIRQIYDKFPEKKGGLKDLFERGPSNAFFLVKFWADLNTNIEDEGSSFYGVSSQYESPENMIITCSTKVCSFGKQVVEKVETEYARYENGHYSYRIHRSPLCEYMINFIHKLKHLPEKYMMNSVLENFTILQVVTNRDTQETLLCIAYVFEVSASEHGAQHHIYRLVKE
Description: as §1, §2, §3, §4, §5

Where [1] appears, read: ratio of protein to compound 1:1.
The mark [2] stands for this setting: ratio of protein to compound 1:3.

Each structure is given as a SMILES string.

Sequence of TEAD1 (P28347 whole entry): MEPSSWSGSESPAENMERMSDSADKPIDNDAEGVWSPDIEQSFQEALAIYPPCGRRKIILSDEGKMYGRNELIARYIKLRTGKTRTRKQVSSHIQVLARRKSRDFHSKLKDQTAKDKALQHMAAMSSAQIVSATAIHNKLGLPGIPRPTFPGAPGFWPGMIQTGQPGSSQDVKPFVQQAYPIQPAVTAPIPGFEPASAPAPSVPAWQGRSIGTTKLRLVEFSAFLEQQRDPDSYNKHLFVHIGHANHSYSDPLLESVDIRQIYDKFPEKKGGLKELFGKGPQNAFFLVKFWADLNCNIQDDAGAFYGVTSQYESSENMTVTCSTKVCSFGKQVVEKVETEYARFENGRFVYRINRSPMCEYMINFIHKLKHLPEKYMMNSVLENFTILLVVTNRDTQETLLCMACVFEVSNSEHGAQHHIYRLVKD

As for `C[C@H](NC(=O)c1cnc2c(C3=CC[C@@H](C(F)(F)F)CC3)cccc2c1)c1ncco1` (single isomer, unassigned) [Compound 20, N-(1-(oxazol-2-yl)ethyl)-8-(4-(trifluoromethyl)cyclohex-1-en-1-yl)quinoline-3-carboxamide], the “TEAD3 ΔTm” value on TEAD3 (setting [1]) came to 2 °C; on TEAD3 (setting [2]), 4.5 °C. In addition, the “TEAD2 ΔTm” value on TEAD2 (setting [1]) came to 1 °C; on TEAD2 (setting [2]), 3 °C. Further, the “TEAD1 ΔTm” value at TEAD1 (setting [1]) was 10 °C; at TEAD1 (setting [2]), 13 °C. The “TEAD4 ΔTm” value on TEAD4 (setting [1]) stood at 1.5 °C; at TEAD4 (setting [2]), 3 °C.
With `C[C@H](NC(=O)c1cnc2c(C3=CCC(C(F)(F)F)CC3)cccc2c1)c1ccccn1` (stereo partly drawn) [Compound 2, N—((S)-1-(pyridin-2-yl)ethyl)-8-(4-(trifluoromethyl)cyclohex-1-en-1-yl)quinoline-3-carboxamide], the results for the “TEAD3 ΔTm” value at TEAD3 (setting [1]) and on TEAD3 (setting [2]) were 2 °C and 3 °C, respectively. The “TEAD2 ΔTm” value on TEAD2 (setting [1]) was found to be 1 °C; on TEAD2 (setting [2]) it was 1.5 °C. For the same compound, the “TEAD1 ΔTm” value is 10 °C at TEAD1 (setting [1]) and 12 °C on TEAD1 (setting [2]). Further, the “TEAD4 ΔTm” value came out at 2 °C at TEAD4 (setting [1]) and 4 °C at TEAD4 (setting [2]).
